Measurements taken from patent publication US9381281B2, “Drug eluting mesh to prevent infection of indwelling transdermal devices” (TYRX, INC., priority 2011, dated 2016).
≈ marks a conversion by molar mass, not a printed value.

Columns and labels:
myofibroblast formation = details: animal studies of capsular contracture with breast implants (Ajmal et al. 2003); cited from earlier work
[1] = system: Acinetobacter baumanii A TCC 19606; assay: Broth dilution MIC; assay type: cell-based; details: Acinetobacter baumannii, ATCC19606, read-out: Minimum Inhibitory Concentration
Source text: (§1) Establishing the MIC of antimicrobials is a necessary step in the process of establishing effective use concentrations. Approved standards for this activity with antibiotics are published by NCCLS. These standards are primarily intended for use in clinical settings with patient isolates. However, they represent a consensus methodology for best practice in determining MICs that are reproducible and defensible. The principles upon which they are based provide a sound framework for determining the MIC for the test.
(§2) The broth dilution method was used to measure quantitatively the in vitro activity of an antimicrobial agent against a given microbial isolate. To perform the test, a series of tubes were prepared with a broth to which various concentrations of the antimicrobial agent were added. The tubes were then inoculated with a standardized suspension of the test organism. After incubation the tubes were examined and the minimal inhibitory concentration (MIC) was determined.
(§3) The following organism were used: Acinetobacter baumanii A TCC 19606; Staphylococcus epidermidis A TCC 14990; Staphylococcus aureus ATCC 6538; Methicillin-resistant Staphylococcus aureus ATCC 33591; Escherichia coli ATCC 8739; Staphylococcus capitis ATCC 35661; or Staphylococcus schleiferi ATCC 43808.

[2] = system: Escherichia coli ATCC 8739; assay: Broth dilution MIC; assay type: cell-based; details: ATCC8739, E. coli, read-out: Minimum Inhibitory Concentration
Source text: as §1, §2, §3

[3] = system: Methicillin-resistant Staphylococcus aureus ATCC 33591; assay: Broth dilution MIC; assay type: cell-based; details: ATCC 33591 / MRSA, read-out: Minimum Inhibitory Concentration
Source text: as §1, §2, §3

[4] = system: Staphylococcus aureus ATCC 6538; assay: Broth dilution MIC; assay type: cell-based; details: ATCC6538, S. aureus, read-out: Minimum Inhibitory Concentration
Source text: as §1, §2, §3

[5] = system: Staphylococcus capitis ATCC 35661; assay: Broth dilution MIC; assay type: cell-based; details: ATCC35661, S. capitis, read-out: Minimum Inhibitory Concentration
Source text: as §1, §2, §3

[6] = system: Staphylococcus epidermidis A TCC 14990; assay: Broth dilution MIC; assay type: cell-based; details: ATCC14990, S. epidermidis, read-out: Minimum Inhibitory Concentration
Source text: as §1, §2, §3

[7] = system: Staphylococcus schleiferi ATCC 43808; assay: Broth dilution MIC; assay type: cell-based; details: ATCC43808, read-out: Minimum Inhibitory Concentration
Source text: as §1, §2, §3

Compound	myofibroblast formation (myofibroblast formation)	MIC [1] [µg/mL]	MIC [2] [µg/mL]	MIC [3] [µg/mL]	MIC [4] [µg/mL]	MIC [5] [µg/mL]	MIC [6] [µg/mL]	MIC [7] [µg/mL]
O=S(=O)([O-])CCS.[Na+] [Mesna, sodium 2-mercaptoethane sulfonate]	diminish myofibroblast formation							
CN(C)c1ccc(O)c2c1C[C@H]1C[C@H]3[C@H](N(C)C)C(O)=C(C(N)=O)C(=O)[C@@]3(O)C(O)=C1C2=O [Minocycline]		0.14 (≈ 0.306 µM)	2.23 (≈ 4.88 µM)	2.23 (≈ 4.88 µM)	0.017 (≈ 0.0372 µM)	0.017 (≈ 0.0372 µM)	0.017 (≈ 0.0372 µM)	0.017 (≈ 0.0372 µM)
CO[C@H]1/C=C/O[C@@]2(C)Oc3c(C)c(O)c4c(O)c(c(/C=N/N5CCN(C)CC5)c(O)c4c3C2=O)NC(=O)/C(C)=C\C=C\[C@H](C)[C@H](O)[C@@H](C)[C@@H](O)[C@@H](C)[C@H](OC(C)=O)[C@@H]1C [Rifampin]		0.129 (≈ 0.157 µM)	2.06 (≈ 2.5 µM)	2.06 (≈ 2.5 µM)	0.016 (≈ 0.0194 µM)	0.016 (≈ 0.0194 µM)	0.016 (≈ 0.0194 µM)	0.016 (≈ 0.0194 µM)
